# Earlier results as cited in patent publication US20210000933A1, “TUMOR VACCINE” (CELL-MEDICINE, INC., priority 2019, published 2021).
# Like-named read-outs stand apart in the source and are kept apart here.
# Assays:
# [1] = tested on: newly diagnosed glioblastoma; conditions: bevacizumab used together with the standard therapy
# [2] = 22 brain tumor cases, PDT then standard therapy
# [3] = newly diagnosed glioblastoma cases (13 cases)
compound,measurement,setting,value
"C=Cc1c(C)c2cc3nc(c(CC(=O)N[C@@H](CC(=O)O)C(=O)O)c4[nH]c(cc5nc(cc1[nH]2)C(C)=C5CC)c(C)c4C(=O)O)[C@@H](CCC(=O)O)[C@@H]3C [talaporphin sodium, talaporfin sodium]",Side reactions,brain tumor; 22 brain tumor cases,"observed for only four cases, and all of them were mild"
same,6-month progression-free survival rate,brain tumor; [2],91%
same,12-month postoperative overall survival rate,brain tumor; [2],95.5%
same,mOS,brain tumor; glioblastoma cases,24.8 months
same,mPFS,brain tumor; glioblastoma cases,12.0 months
same,6-month progression-free survival rate,brain tumor; [3],100%
same,12-month postoperative overall survival rate,brain tumor; [3],100%
bevacizumab: antibody drug having a tumor neovascularization inhibitory effect,mOS,[1],15.7 to 16.8 months
same,mPFS,[1],10.6 to 10.7 months
